Data as given in patent publication US20250206779A1, “ANGIOTENSIN-(1-9) ANALOGUE BASED ON D AMINO ACIDS, PHARMACEUTICAL COMPOSITIONS AND USES THEREOF” (UNIVERSIDAD DE CHILE, priority 2021, published 2025).
Where a SMILES comes first, the peptide text is derived from it. [ ]: non-standard residue; d: D form.

Key:
[1] = Stability in human serum determined by HPLC; assay type: in vitro ADME; conditions: male, 48 h incubation, 37° C., read-out: degradation after incubation with human serum
Procedure: The retro-inverse peptides were dissolved in PBS to obtain a final concentration of 1 mM. From this stock, an aliquot of 50 μL was taken and diluted to 450 μL of human serum (Sigma Aldrich from human male AB plasma, USA origin, sterile-filtered) at 37° C. under agitation, to obtain an initial concentration of […] and incubated for 48 h. Aliquots of 50 μL were extracted at 0, 5, 10 min and 1, 3, 6, 24 and 48 h and added to 200 μL of methanol at 4° C. for 30 min to precipitate serum proteins. The samples were then centrifuged at 13,000 g in Hermle Cooling Centrifuge Z 326 K 311.00 V01 at 4° C. for 30 min. The supernatants (approximately 200 μL) were obtained, placed in vials, and then analyzed by HPLC. All analyzes were performed on the Perkin Elmer auto sampler flexo HPLC, using a reverse phase 4.6×100 mm column with a particle size of […] (Waters XBridge Peptide BEH C18 Column). Mobile phase A was 100% acetonitrile and phase B was TFA 0.0004% in Milli-Q water. The initial composition of eluent was 5% A and 95% B for 1 min and then a linear gradient to reach 100% A in 19 min and then return to the initial composition in 4 min, with a total run time of 25 min. The eluent flow was 0.9 mL/min and the temperature of the column was adjusted to 26° C. L measurement was performed at a UV signal of 220 nm wavelength. Where 50 μL was injected per sample. Peptides were identified based on their retention time in the respective chromatogram obtained in the Chromera-HPLC flexar program.

[2] = test system: spontaneously hypertensive rats (SHR); assay: β-MHC protein level in left ventricle of SHR (cardiac hypertrophy); assay type: in vivo, rat; conditions: SHR, 1,200 ng/kg/min, 14 days, left ventricle western blot
Procedure: Experimental animal model. All procedures were performed in accordance with the Guide for the Care and Use of Laboratory Animals published by the U.S. National Institutes of Health (NIH Publication 85 23, 1985) and approved by our Institutional Bioethics Committee. The animals were housed under the continuous professional monitoring of the Medical Veterinary staff in the animal facility of the Pontificia Universidad Católica de Chile, under the following conditions: 12-h light-dark cycle; 21° C. ambient temperature; 50% humidity; adequate ventilation; noise-free environment; and food and water ad libitum. Male spontaneously hypertensive rats (SHR, age 12 weeks) and normotensive Wistar Kyoto rats (WKY, 12 weeks age) were used. […] Systolic blood pressure (SBP), diastolic blood pressure (DBP) and body weight (BW) were measured at the end of the treatment period and the animals were then sacrificed.
Measurement of β-MHC protein level to assess cardiac hypertrophy. β-MHC protein levels were determined by Western blotting. […] Digital images obtained from the photographic films were analyzed by densitometry using Image J software (NIH, USA). […]

For `CC[C@@H](C)[C@@H](NC(=O)[C@@H](Cc1c[nH]cn1)NC(=O)[C@H]1CCCN1C(=O)[C@@H](Cc1ccccc1)NC(=O)[C@H](N)Cc1c[nH]cn1)C(=O)N[C@H](Cc1ccc(O)cc1)C(=O)N[C@@H](C(=O)N[C@H](CCCNC(=N)N)C(=O)N[C@H](CC(=O)O)C(=O)O)C(C)C` [retro-inverse angiotensin-(1-9), NH2-^DH^DF^DP^DH^DI^DY^DV^DR^DD-COOH] (H-[dH][dF][dP][dH][dI][dY][dV][dR][dD]-OH), the metabolised at 48 h, 20 μM [1] was less than 20% and the “increase in β-MHC induced by hypertension” value [2] was “reversed the increase”.
